This passage reports IC50 results from US20240376056A1, “PHENYL ACETAMIDE BASED IL-17A MODULATORS AND USES THEREOF” (DiCE Alpha, Inc., priority 2021, published 2024).

The target in the test is T1, IL-17A/A (Homo sapiens, UniProt Q16552).
T1 construct: purchased Genscript Z03228
T1 sequence (Q16552 24-155): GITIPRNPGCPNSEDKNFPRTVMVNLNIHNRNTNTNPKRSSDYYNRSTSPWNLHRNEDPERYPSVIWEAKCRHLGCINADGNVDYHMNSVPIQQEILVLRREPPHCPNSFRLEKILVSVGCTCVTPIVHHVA
In words: HEK-Blue IL-17A/A inhibition assay (SEAP reporter). It counts as cell-based. To be noted: HEK-Blue cells (HEK 293 expressing IL-17RA, IL-17RC, Act1); IL-17A/A stimulation; 20 hours; SEAP read at A630; 4-parameter fit. In short, it runs like this: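 IC50 from a 4-parameter fit of SEAP signal (Quanti-Blue, A630) after 20 h co-incubation of compound and IL-17A/A. Reporter line: HEK 293 expressing IL-17RA, IL-17RC and Act1 with NFκB-SEAP; compound top final 10, 1 or 0.3 uM, DMSO 0.1% final.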
Take `Cc1cc(NC(=O)[C@@H](NC(=O)c2ccnn2C(C)C)C(C2CC2)C2CC2)c(F)cc1C(C)C(=O)N1CC(O)CC1C(F)(F)F` (single isomer, unassigned) [Compound 173]: the IC50 was under 100 nM. Take `COc1cc(NC(=O)[C@@H](NC(=O)c2ccnn2C(C)C)C(C2CC2)C2CC2)c(F)cc1C(C)C(=O)NC(CO)C(F)(F)F` (single isomer, unassigned) [Compound 180]: the 50% inhibitory concentration (IC50) was under 100 nM. On to `COc1cc(NC(=O)[C@@H](NC(=O)c2ccnn2C(C)C)C(C2CC2)C2CC2)c(F)cc1C(C)C(=O)NC(CO)C(F)(F)F` (single isomer, unassigned) [Compound 181], for which the IC50 is 100 to 1000 nM.

On to `COc1cc(NC(=O)[C@@H](NC(=O)c2ccnn2C(C)C)C(C2CC2)C2CC2)c(F)cc1C(C)C(=O)N1CC(O)CC1C(F)(F)F` (single isomer, unassigned) [Compound 182], for which the IC50 was over 1000 nM. For `COc1cc(NC(=O)[C@@H](NC(=O)c2ccnn2C(C)C)C(C2CC2)C2CC2)c(F)cc1C(C)C(=O)N1CC(O)CC1C(F)(F)F` (single isomer, unassigned) [Compound 183], the IC50 is over 1000 nM. As for `CC(C(=O)NCC(F)(F)F)c1cc(F)c(NC(=O)[C@@H](NC(=O)c2ccnn2C(C)C)C(C2CC2)C2CC2)cc1OC(F)(F)F` (single isomer, unassigned) [Compound 185], the IC50 is under 100 nM. For the compound `CC(C(=O)NCC(F)(F)F)c1cc(F)c(NC(=O)[C@@H](NC(=O)c2ccnn2C(C)C)C(C2CC2)C2CC2)cc1NC(F)(F)F` (single isomer, unassigned) [Compound 186], the IC50 lay in the range of 100 to 1000 nM. As to `CC(C)n1nccc1C(=O)N[C@H](C(=O)Nc1ccc(C(N)C(=O)NCC(F)(F)F)cc1F)C(C1CC1)C1CC1` (single isomer, unassigned) [Compound 189], the IC50 is over 1000 nM. As for `CC(C)n1nccc1C(=O)N[C@H](C(=O)Nc1ccc(C(N)C(=O)NCC(F)(F)F)cc1F)C(C1CC1)C1CC1` (single isomer, unassigned) [Compound 191], the IC50 was 100 to 1000 nM. Turning to `Cc1cc(NC(=O)[C@@H](NC(=O)c2ccnn2C(C)C)C(C2CC2)C2CC2)c(F)cc1C(C)C(=O)N1CC(O)CC1C(F)(F)F` (single isomer, unassigned) [Compound 199], the IC50 is under 100 nM.

Turning to `Cc1cc(NC(=O)[C@@H](NC(=O)c2ccnn2C(C)C)C(C2CC2)C2CC2)c(F)cc1C(C)C(=O)N1CC(O)CC1C(F)(F)F` (single isomer, unassigned) [Compound 200], the IC50 lay within 100 to 1000 nM. In the case of `COc1cc(NC(=O)[C@@H](NC(=O)c2ccnn2C(C)C)C(C2CC2)C2CC2)c(F)cc1C(C)C(=O)N1CC(O)CC1C(F)(F)F` (single isomer, unassigned) [Compound 212], the IC50 is under 100 nM. Consider `COc1cc(NC(=O)[C@@H](NC(=O)c2ccnn2C(C)C)C(C2CC2)C2CC2)c(F)cc1C(C)C(=O)N1CC(O)CC1C(F)(F)F` (single isomer, unassigned) [Compound 213], for which the IC50 is 100 to 1000 nM. As to `CC(C(=O)NCC(F)(F)F)c1cc(F)c(NC(=O)[C@@H](NC(=O)c2ccnn2C(C)C)C2CCC(F)(F)CC2)cc1OC(F)(F)F` (single isomer, unassigned) [Compound 219], the IC50 was in the range of 100 to 1000 nM. As to `CC(C(=O)NCC(F)(F)F)c1cc(F)c(NC(=O)[C@@H](NC(=O)c2ccnn2C(C)C)C2CCC(F)(F)CC2)cc1OC(F)(F)F` (single isomer, unassigned) [Compound 220], the IC50 is over 1000 nM. Take `CC(C(=O)NC1CCC1(F)F)c1cc(F)c(NC(=O)[C@@H](NC(=O)c2ccnn2C(C)C)C(C2CC2)C2CC2)cc1C(F)(F)F` (single isomer, unassigned) [Compound 230]: the IC50 was 100 to 1000 nM. The same measure for `CC(C(=O)NC1CCC1(F)F)c1cc(F)c(NC(=O)[C@@H](NC(=O)c2ccnn2C(C)C)C(C2CC2)C2CC2)cc1C(F)(F)F` (single isomer, unassigned) [Compound 231]: 100 to 1000 nM.

With `CCn1nccc1C(=O)N[C@H](C(=O)Nc1cc(C(F)(F)F)c(C(C)C(=O)NC(CO)C(F)(F)F)cc1F)C(C1CC1)C1CC1` (single isomer, unassigned) [Compound 240], the IC50 was under 100 nM.

Regarding `CCn1nccc1C(=O)N[C@H](C(=O)Nc1cc(C(F)(F)F)c(C(C)C(=O)NC(CO)C(F)(F)F)cc1F)C(C1CC1)C1CC1` (single isomer, unassigned) [Compound 241], the IC50 was over 1000 nM. Take `CC(C(=O)NCC(F)(F)F)c1cc(F)c(NC(=O)[C@@H](NC(=O)c2ccnn2C(C)C)C(C2CC2)C2CC2)cc1Nc1ccccn1` (single isomer, unassigned) [Compound 261]: the IC50 is over 1000 nM. Consider `CC(C(=O)NCC(F)(F)F)c1cc(F)c(NC(=O)[C@@H](NC(=O)c2ccnn2C(C)C)C(C2CC2)C2CC2)cc1Nc1ccccn1` (single isomer, unassigned) [Compound 262], for which the IC50 is over 1000 nM. In the case of `CCn1nccc1C(=O)N[C@H](C(=O)Nc1ccc(CC(=O)N(C)CC(F)(F)F)cc1F)C1CCCCCC1` [Compound 1, (S)-N-(1-cycloheptyl-2-((2-fluoro-4-(2-(methyl(2,2,2-trifluoroethyl)amino)-2-oxoethyl)phenyl)amino)-2-oxoethyl)-1-ethyl-1H-pyrazole-5-carboxamide], the IC50 lay within 100 to 1000 nM. For the compound `CCn1nccc1C(=O)N[C@H](C(=O)Nc1ccc(CC(=O)NCC(F)(F)F)cc1F)C1CCCCCC1` [Compound 2, (S)-N-(1-cycloheptyl-2-((2-fluoro-4-(2-oxo-2-((2,2,2-trifluoroethyl)amino)ethyl)phenyl)amino)-2-oxoethyl)-1-ethyl-1H-pyrazole-5-carboxamide], the IC50 was 100 to 1000 nM. With `CCn1nccc1C(=O)N[C@H](C(=O)Nc1ccc(CC(=O)N(C)C2(C(F)(F)F)CC2)cc1F)C1CCCCCC1` [Compound 5, (S)-N-(1-cycloheptyl-2-((2-fluoro-4-(2-(methyl(1-(trifluoromethyl)cyclopropyl)amino)-2-oxoethyl)phenyl)amino)-2-oxoethyl)-1-ethyl-1H-pyrazole-5-carboxamide], the IC50 is over 1000 nM. On to `CCn1nccc1C(=O)N[C@H](C(=O)Nc1ccc(C(C)(C)C(=O)NCC(F)(F)F)cc1F)C1CCCCCC1` [Compound 7, (S)-N-(1-cycloheptyl-2-((2-fluoro-4-(2-methyl-1-oxo-1-((2,2,2-trifluoroethyl)amino)propan-2-yl)phenyl)amino)-2-oxoethyl)-1-ethyl-1H-pyrazole-5-carboxamide], for which the IC50 is 100 to 1000 nM. For the compound `CCn1nccc1C(=O)N[C@H](C(=O)Nc1ccc([C@H](C)C(=O)N(CC2CC2)CC(F)(F)F)cc1F)C1CCCCCC1` [Compound 8, N-((S)-1-cycloheptyl-2-((4-((S)-1-((cyclopropylmethyl)(2,2,2-trifluoroethyl)amino)-1-oxopropan-2-yl)-2-fluorophenyl)amino)-2-oxoethyl)-1-ethyl-1H-pyrazole-5-carboxamide], the IC50 was under 100 nM.

In the case of `CCn1nccc1C(=O)N[C@H](C(=O)Nc1ccc([C@H](C)C(=O)N2CCC[C@@H]2C(F)(F)F)cc1F)C(C1CC1)C1CC1` [Compound 9, N-((S)-1,1-dicyclopropyl-3-((2-fluoro-4-((S)-1-oxo-1-((R)-2-(trifluoromethyl)pyrrolidin-1-yl)propan-2-yl)phenyl)amino)-3-oxopropan-2-yl)-1-ethyl-1H-pyrazole-5-carboxamide], the IC50 is over 1000 nM.

As a reminder, the IC50 is the midpoint of a concentration-inhibition curve.
